Measured values taken from patent US20250026724A1, “(1,4,5-TRISUBSTITUTED 1H-PYRAZOL-3-YL)OXY-2-ALKYLTHIOALKYL ACIDS AND -ALKYL ACID DERIVATIVES, SALTS THEREOF AND USE THEREOF AS ACTIVE HERBICIDAL INGREDIENTS” (BAYER AKTIENGESELLSCHAFT, priority 2021, published 2025).

Each compound was assayed on Bassia scoparia (KCHSC) (assay: Post-emergence herbicidal action, greenhouse pot trial). Details: 320 g/ha.
Format: in vivo
Method: (§1) Seeds of monocotyledonous and dicotyledonous weeds and crop plants are placed in sandy loam in plastic or organic planting pots, covered with soil and cultivated in a greenhouse under controlled growth conditions. 2 to 3 weeks after sowing, the trial plants are treated at the one-leaf stage. The compounds of the invention, formulated in the form of wettable powders (WP) or as emulsion concentrates (EC), are then sprayed onto the green parts of the plants as aqueous suspension or emulsion with addition of 0.5% additive at a water application rate equivalent to 600 l/ha. After about 3 weeks of keeping the trial plants in the greenhouse under optimum growth conditions, the effect of the preparations is rated visually in comparison to untreated controls. For example, 100% activity=the plants have died, 0% activity=like control plants.
(§2) Tables B1 to B14 below show the effects of selected compounds of the general formula (I) according to Table 1 on various harmful plants and at an application rate corresponding to 320 g/ha or lower, which were obtained by the trial procedure specified above. The appendices “a”, “b” and “c” give differentiation by dosage used with otherwise the same harmful plants tested.
(§3) As shown by results from Tables B1 to B19, inventive compounds of the general formula (I) in the case of post-emergence treatment have good herbicidal efficacy against harmful plants, for example Abutilon theophrasti (ABUTH), Alopecurus myosuroides (ALOMY), Amaranthus retroflexus (AMARE), Avena fatua (AVEFA), Digitaria sanguinalis (DIGSA), Echinochloa crus-galli (ECHCG), Bassia scoparia (KCHSC), Lolium rigidum (LOLRI), Matricaria inodora (MATIN), Pharbitis purpurea (PHBPU), Polygonum convolvulus (POLCO), Setaria viridis (SETVI), Veronica persica (VERPE) and Viola tricolor (VIOTR) at an application rate of 320 g of active substance or less per hectare, and good crop plant compatibility in the case of organisms such as Oryza sativa (ORYSA), Zea mays (ZEAMX), Brassica napus (BRSNW), Glycine max (GLXMA) and Triticum aestivum (TRZAS) at an application rate of 320 g or less per hectare.

| Compound | Post-emergence effect against KCHSC [%] |
| --- | --- |
| CCOC(=O)C(Oc1nn(-c2ncccc2F)c(-c2ccc(F)nc2)c1Br)SC (single isomer, unassigned) [Example I-28] | 80 |

These compounds were tested on Alopecurus myosuroides (ALOMY) in the same assay as above. Details: Alopecurus myosuroides, 504 h, 320 g/ha, visual rating after about 3 weeks, read-out: Post-emergence effect at 320 g/ha against ALOMY in %.
Format: in vivo
Method: as §1, §2, §3

| Compound | pest or weed control at 320 g/ha [%] |
| --- | --- |
| CCOC(=O)C(Oc1nn(-c2ncccc2F)c(-c2ccc(F)nc2)c1Br)SC (single isomer, unassigned) [Example I-28] | 90 |

What follows are compounds tested on Matricaria inodora (MATIN) in the same assay as above. Details: Tripleurospermum inodorum, 504 h, 80 g/ha, visual rating after about 3 weeks, read-out: Post-emergence effect at 80 g/ha against MATIN in %.
Format: in vivo
Method: as §1, §2, §3

| Compound | pest or weed control at 80 g/ha [%] |
| --- | --- |
| CCOC(=O)C(Oc1nn(-c2ncccc2F)c(-c2ccc(F)nc2)c1Br)SC (single isomer, unassigned) [Example I-28] | 80 |

Same assay, conditions: Tripleurospermum inodorum, 504 h, 320 g/ha, visual rating after about 3 weeks, read-out: Post-emergence effect at 320 g/ha against MATIN in %

| Compound | pest or weed control at 320 g/ha [%] |
| --- | --- |
| CCOC(=O)C(Oc1nn(-c2ncccc2F)c(-c2ccc(F)nc2)c1Br)SC (single isomer, unassigned) [Example I-28] | 90 |

Each compound was assayed on Setaria viridis (SETVI) in the same assay as above. Details: 80 g/ha, visual rating after about 3 weeks.
Format: in vivo
Method: as §1, §2, §3

| Compound | Post-emergence effect at 80 g/ha against SETVI in % [%] |
| --- | --- |
| CCOC(=O)C(Oc1nn(-c2ncccc2F)c(-c2ccc(F)nc2)c1Br)SC (single isomer, unassigned) [Example I-28] | 80 |

Same assay, conditions: Setaria viridis, 504 h, 320 g/ha, visual rating after about 3 weeks, read-out: Post-emergence effect at 320 g/ha against SETVI in %

| Compound | pest or weed control at 320 g/ha [%] |
| --- | --- |
| CCOC(=O)C(Oc1nn(-c2ncccc2F)c(-c2ccc(F)nc2)c1Br)SC (single isomer, unassigned) [Example I-28] | 90 |

What follows are compounds tested on Avena fatua (AVEFA) in the same assay as above. Details: Avena fatua, 504 h, 320 g/ha, visual rating after about 3 weeks, read-out: Post-emergence effect at 320 g/ha against AVEFA in %.
Format: in vivo
Method: as §1, §2, §3

| Compound | pest or weed control at 320 g/ha [%] |
| --- | --- |
| CCOC(=O)C(Oc1nn(-c2ncccc2F)c(-c2ccc(F)nc2)c1Br)SC (single isomer, unassigned) [Example I-28] | 80 |

These compounds were tested on Viola tricolor (VIOTR) in the same assay as above. Details: Viola tricolor, 504 h, 80 g/ha, read-out: Post-emergence effect against VIOTR.
Format: in vivo
Method: as §1, §2, §3

| Compound | pest or weed control at 80 g/ha [%] |
| --- | --- |
| CCOC(=O)C(Oc1nn(-c2ncccc2F)c(-c2ccc(F)nc2)c1Br)SC (single isomer, unassigned) [Example I-28] | 80 |

Same assay, conditions: Viola tricolor, 504 h, 320 g/ha, read-out: Post-emergence effect against VIOTR

| Compound | pest or weed control at 320 g/ha [%] |
| --- | --- |
| CCOC(=O)C(Oc1nn(-c2ncccc2F)c(-c2ccc(F)nc2)c1Br)SC (single isomer, unassigned) [Example I-28] | 90 |

These compounds were tested on Lolium rigidum (LOLRI) in the same assay as above. Details: 80 g/ha, visual rating after about 3 weeks.
Format: in vivo
Method: as §1, §2, §3

| Compound | Post-emergence effect at 80 g/ha against LOLRI in % [%] |
| --- | --- |
| CCOC(=O)C(Oc1nn(-c2ncccc2F)c(-c2ccc(F)nc2)c1Br)SC (single isomer, unassigned) [Example I-28] | 90 |

Same assay, conditions: Lolium rigidum, 504 h, 320 g/ha, visual rating after about 3 weeks, read-out: Post-emergence effect at 320 g/ha against LOLRI in %

| Compound | pest or weed control at 320 g/ha [%] |
| --- | --- |
| CCOC(=O)C(Oc1nn(-c2ncccc2F)c(-c2ccc(F)nc2)c1Br)SC (single isomer, unassigned) [Example I-28] | 90 |

What follows are compounds tested on Digitaria sanguinalis (DIGSA) in the same assay as above. Details: 80 g/ha, visual rating after about 3 weeks.
Format: in vivo
Method: as §1, §2, §3

| Compound | Post-emergence effect at 80 g/ha against DIGSA in % [%] |
| --- | --- |
| CCOC(=O)C(Oc1nn(-c2ncccc2F)c(-c2ccc(F)nc2)c1Br)SC (single isomer, unassigned) [Example I-28] | 80 |

Same assay, conditions: Digitaria sanguinalis, 504 h, 320 g/ha, visual rating after about 3 weeks, read-out: Post-emergence effect at 320 g/ha against DIGSA in %

| Compound | pest or weed control at 320 g/ha [%] |
| --- | --- |
| CCOC(=O)C(Oc1nn(-c2ncccc2F)c(-c2ccc(F)nc2)c1Br)SC (single isomer, unassigned) [Example I-28] | 90 |

Each compound was assayed on Polygonum convolvulus (POLCO) in the same assay as above. Details: Fallopia convolvulus, 504 h, 80 g/ha, visual rating after about 3 weeks, read-out: Post-emergence effect at 80 g/ha against POLCO in %.
Format: in vivo
Method: as §1, §2, §3

| Compound | pest or weed control at 80 g/ha [%] |
| --- | --- |
| CCOC(=O)C(Oc1nn(-c2ncccc2F)c(-c2ccc(F)nc2)c1Br)SC (single isomer, unassigned) [Example I-28] | 90 |

Same assay, conditions: Fallopia convolvulus, 504 h, 320 g/ha, visual rating after about 3 weeks, read-out: Post-emergence effect at 320 g/ha against POLCO in %

| Compound | pest or weed control at 320 g/ha [%] |
| --- | --- |
| CCOC(=O)C(Oc1nn(-c2ncccc2F)c(-c2ccc(F)nc2)c1Br)SC (single isomer, unassigned) [Example I-28] | 90 |

These compounds were tested on Amaranthus retroflexus (AMARE) in the same assay as above. Details: 20 g/ha, visual rating after about 3 weeks.
Format: in vivo
Method: as §1, §2, §3

| Compound | Post-emergence effect at 20 g/ha against AMARE in % [%] |
| --- | --- |
| CCOC(=O)C(Oc1nn(-c2ncccc2F)c(-c2ccc(F)nc2)c1Br)SC (single isomer, unassigned) [Example I-28] | 80 |

Same assay, conditions: Amaranthus retroflexus, 504 h, 80 g/ha, visual rating after about 3 weeks, read-out: Post-emergence effect at 80 g/ha against AMARE in %

| Compound | pest or weed control at 80 g/ha [%] |
| --- | --- |
| CCOC(=O)C(Oc1nn(-c2ncccc2F)c(-c2ccc(F)nc2)c1Br)SC (single isomer, unassigned) [Example I-28] | 90 |

Same assay, conditions: Amaranthus retroflexus, 504 h, 320 g/ha, visual rating after about 3 weeks, read-out: Post-emergence effect at 320 g/ha against AMARE in %

| Compound | pest or weed control at 320 g/ha [%] |
| --- | --- |
| CCOC(=O)C(Oc1nn(-c2ncccc2F)c(-c2ccc(F)nc2)c1Br)SC (single isomer, unassigned) [Example I-28] | 90 |

The compounds below were run on Echinochloa crus-galli (ECHCG) in the same assay as above. Details: Echinochloa crus-galli, 504 h, 80 g/ha, visual rating after about 3 weeks, read-out: Post-emergence effect at 80 g/ha against ECHCG in %.
Format: in vivo
Method: as §1, §2, §3

| Compound | pest or weed control at 80 g/ha [%] |
| --- | --- |
| CCOC(=O)C(Oc1nn(-c2ncccc2F)c(-c2ccc(F)nc2)c1Br)SC (single isomer, unassigned) [Example I-28] | 90 |

Same assay, conditions: Echinochloa crus-galli, 504 h, 320 g/ha, visual rating after about 3 weeks, read-out: Post-emergence effect at 320 g/ha against ECHCG in %

| Compound | pest or weed control at 320 g/ha [%] |
| --- | --- |
| CCOC(=O)C(Oc1nn(-c2ncccc2F)c(-c2ccc(F)nc2)c1Br)SC (single isomer, unassigned) [Example I-28] | 90 |

These compounds were tested on Abutilon theophrasti (ABUTH) in the same assay as above. Details: Abutilon theophrasti, 504 h, 80 g/ha, visual rating after about 3 weeks, read-out: Post-emergence effect at 80 g/ha against ABUTH in %.
Format: in vivo
Method: as §1, §2, §3

| Compound | pest or weed control at 80 g/ha [%] |
| --- | --- |
| CCOC(=O)C(Oc1nn(-c2ncccc2F)c(-c2ccc(F)nc2)c1Br)SC (single isomer, unassigned) [Example I-28] | 80 |

Same assay, conditions: Abutilon theophrasti, 504 h, 320 g/ha, visual rating after about 3 weeks, read-out: Post-emergence effect at 320 g/ha against ABUTH in %

| Compound | pest or weed control at 320 g/ha [%] |
| --- | --- |
| CCOC(=O)C(Oc1nn(-c2ncccc2F)c(-c2ccc(F)nc2)c1Br)SC (single isomer, unassigned) [Example I-28] | 80 |

The compounds below were run on Pharbitis purpurea (PHBPU) in the same assay as above. Details: 20 g/ha, visual rating after about 3 weeks.
Format: in vivo
Method: as §1, §2, §3

| Compound | Post-emergence effect at 20 g/ha against PHBPU in % [%] |
| --- | --- |
| CCOC(=O)C(Oc1nn(-c2ncccc2F)c(-c2ccc(F)nc2)c1Br)SC (single isomer, unassigned) [Example I-28] | 80 |

Same assay, conditions: Ipomoea purpurea, 504 h, 80 g/ha, visual rating after about 3 weeks, read-out: Post-emergence effect at 80 g/ha against PHBPU in %

| Compound | pest or weed control at 80 g/ha [%] |
| --- | --- |
| CCOC(=O)C(Oc1nn(-c2ncccc2F)c(-c2ccc(F)nc2)c1Br)SC (single isomer, unassigned) [Example I-28] | 90 |

Same assay, conditions: Ipomoea purpurea, 504 h, 320 g/ha, visual rating after about 3 weeks, read-out: Post-emergence effect at 320 g/ha against PHBPU in %

| Compound | pest or weed control at 320 g/ha [%] |
| --- | --- |
| CCOC(=O)C(Oc1nn(-c2ncccc2F)c(-c2ccc(F)nc2)c1Br)SC (single isomer, unassigned) [Example I-28] | 90 |
